# Laboratory results: PubChem BioAssay AID1963845 (Molecular Pharmacology Branch, DTP, NCI, 2024)
# Test system: 429239-143-T-J1-PDC complex spheroid viability
# Assay: Anticancer human tumor 429239-143-T-J1-PDC patient-derived small cell lung carcinoma cell line growth inhibition [POLQ]
# Conditions: for IC50: curve of first compound; for viability, T/C: stronger effect = lower value
# In short: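 Complex spheroid viability model combining PDC tumour cells with endothelial (HUVEC) and MSC stromal cells. Novobiocin, ART-558 or RP6685 were tested singly and in combination with standard and investigational anticancer drugs. Each was titrated in half-log steps from near clinical Cmax, or from 10 microM where Cmax was unknown.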
# [1] = second compound 0.0316 µM, first compound 0.0316 µM
# [2] = second compound 0.0316 µM, first compound 0.1 µM
# [3] = second compound 0.0316 µM, first compound 0.316 µM
# [4] = second compound 0.0316 µM, first compound 1 µM
# [5] = second compound 0.0316 µM, first compound 3.16 µM
# [6] = second compound 0.0316 µM, first compound 10 µM
# [7] = second compound 0.1 µM, first compound 0.0316 µM
# [8] = second compound 0.1 µM, first compound 0.1 µM
# [9] = second compound 0.1 µM, first compound 0.316 µM
# [10] = second compound 0.1 µM, first compound 1 µM
# [11] = second compound 0.1 µM, first compound 3.16 µM
# [12] = second compound 0.1 µM, first compound 10 µM
# [13] = second compound 0.316 µM, first compound 0.0316 µM
# [14] = second compound 0.316 µM, first compound 0.1 µM
# [15] = second compound 0.316 µM, first compound 0.316 µM
# [16] = second compound 0.316 µM, first compound 1 µM
# [17] = second compound 0.316 µM, first compound 3.16 µM
# [18] = second compound 0.316 µM, first compound 10 µM
# [19] = second compound 1 µM, first compound 0.0316 µM
# [20] = second compound 1 µM, first compound 0.1 µM
# [21] = second compound 1 µM, first compound 0.316 µM
# [22] = second compound 1 µM, first compound 1 µM
# [23] = second compound 1 µM, first compound 3.16 µM
# [24] = second compound 1 µM, first compound 10 µM
# [25] = second compound 3.16 µM, first compound 0.0316 µM
# [26] = second compound 3.16 µM, first compound 0.1 µM
# [27] = second compound 3.16 µM, first compound 0.316 µM
# [28] = second compound 3.16 µM, first compound 1 µM
# [29] = second compound 3.16 µM, first compound 3.16 µM
# [30] = second compound 3.16 µM, first compound 10 µM
# [31] = second compound 10 µM, first compound 0.0316 µM
# [32] = second compound 10 µM, first compound 0.1 µM
# [33] = second compound 10 µM, first compound 0.316 µM
# [34] = second compound 10 µM, first compound 1 µM
# [35] = second compound 10 µM, first compound 3.16 µM
# [36] = second compound 10 µM, first compound 10 µM
# 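Also: luminescence signal used as surrogate measure of viable cells; spheroids exposed to compounds for seven days before readout.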
# 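For viability, T/C in this document: 100% = DMSO vehicle control viability as luminescence relative to vehicle.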
smiles,measurement,setting,value
COc1cc2cc(C(=O)CCC(=O)O)sc2cc1OC + Cc1cccc(N(C)C(=O)C2C(O)CCN2c2nc(C)cc(C(F)(F)F)c2C#N)c1,IC50,second compound 0.0316 µM,> 10 µM
same,IC50,second compound 0.1 µM,> 10 µM
same,IC50,second compound 0.316 µM,> 10 µM
same,IC50,second compound 1 µM,> 10 µM
same,IC50,second compound 3.16 µM,> 10 µM
same,IC50,second compound 10 µM,> 10 µM
same,"viability, T/C",[1],103%
same,"viability, T/C",[2],114%
same,"viability, T/C",[3],97.8%
same,"viability, T/C",[4],106%
same,"viability, T/C",[5],109%
same,"viability, T/C",[6],89.5%
same,"viability, T/C",[7],96.1%
same,"viability, T/C",[8],97.9%
same,"viability, T/C",[9],109%
same,"viability, T/C",[10],99.4%
same,"viability, T/C",[11],94.4%
same,"viability, T/C",[12],101%
same,"viability, T/C",[13],109%
same,"viability, T/C",[14],118%
same,"viability, T/C",[15],99.9%
same,"viability, T/C",[16],106%
same,"viability, T/C",[17],96%
same,"viability, T/C",[18],90.1%
same,"viability, T/C",[19],99.8%
same,"viability, T/C",[20],99.1%
same,"viability, T/C",[21],94.1%
same,"viability, T/C",[22],115%
same,"viability, T/C",[23],117%
same,"viability, T/C",[24],91.2%
same,"viability, T/C",[25],108%
same,"viability, T/C",[26],96.3%
same,"viability, T/C",[27],103%
same,"viability, T/C",[28],105%
same,"viability, T/C",[29],115%
same,"viability, T/C",[30],101%
same,"viability, T/C",[31],104%
same,"viability, T/C",[32],91.3%
same,"viability, T/C",[33],99.3%
same,"viability, T/C",[34],120%
same,"viability, T/C",[35],110%
same,"viability, T/C",[36],97.7%
CC(C)n1c(=O)n(C)c2cnc3cc(F)c(-c4ccc(OCCCN5CCCCC5)nc4)cc3c21 + Nc1ccc(C#CCN(C(=O)Cc2ncc(C(F)(F)F)cc2C(F)(F)F)c2ccc(F)cc2)nn1,IC50,second compound 0.0316 µM,> 10 µM
same,IC50,second compound 0.1 µM,> 10 µM
same,IC50,second compound 0.316 µM,> 10 µM
same,IC50,second compound 1 µM,> 10 µM
same,IC50,second compound 3.16 µM,> 10 µM
same,IC50,second compound 10 µM,> 10 µM
same,"viability, T/C",[1],98.5%
same,"viability, T/C",[2],107%
same,"viability, T/C",[3],92.2%
same,"viability, T/C",[4],109%
same,"viability, T/C",[5],102%
same,"viability, T/C",[6],97.8%
same,"viability, T/C",[7],102%
same,"viability, T/C",[8],105%
same,"viability, T/C",[9],99.9%
same,"viability, T/C",[10],102%
same,"viability, T/C",[11],106%
same,"viability, T/C",[12],90.9%
same,"viability, T/C",[13],101%
same,"viability, T/C",[14],107%
same,"viability, T/C",[15],93.3%
same,"viability, T/C",[16],104%
same,"viability, T/C",[17],106%
same,"viability, T/C",[18],91.1%
same,"viability, T/C",[19],99.1%
same,"viability, T/C",[20],101%
same,"viability, T/C",[21],105%
same,"viability, T/C",[22],102%
same,"viability, T/C",[23],105%
same,"viability, T/C",[24],93%
same,"viability, T/C",[25],97.1%
same,"viability, T/C",[26],91.4%
same,"viability, T/C",[27],98.9%
same,"viability, T/C",[28],98.6%
same,"viability, T/C",[29],100%
same,"viability, T/C",[30],91.1%
same,"viability, T/C",[31],105%
same,"viability, T/C",[32],103%
same,"viability, T/C",[33],97.3%
same,"viability, T/C",[34],99.4%
same,"viability, T/C",[35],91.5%
same,"viability, T/C",[36],94.3%
Nc1ccn(C2OC(CO)C(O)C2(F)F)c(=O)n1 (stereo unspecified) + Nc1ccc(C#CCN(C(=O)Cc2ncc(C(F)(F)F)cc2C(F)(F)F)c2ccc(F)cc2)nn1,IC50,second compound 0.0316 µM,0.0494 µM
same,IC50,second compound 0.1 µM,0.0499 µM
same,IC50,second compound 0.316 µM,0.0483 µM
same,IC50,second compound 1 µM,0.0462 µM
same,IC50,second compound 3.16 µM,0.0476 µM
same,IC50,second compound 10 µM,0.0506 µM
same,"viability, T/C",[1],77.1%
same,"viability, T/C",[2],7.33%
same,"viability, T/C",[3],5.99%
same,"viability, T/C",[4],6.45%
same,"viability, T/C",[5],6.94%
same,"viability, T/C",[6],6.48%
same,"viability, T/C",[7],77.7%
same,"viability, T/C",[8],7.8%
same,"viability, T/C",[9],7.04%
same,"viability, T/C",[10],5.04%
same,"viability, T/C",[11],8.53%
same,"viability, T/C",[12],6.25%
same,"viability, T/C",[13],75%
same,"viability, T/C",[14],7.13%
same,"viability, T/C",[15],7.6%
same,"viability, T/C",[16],6.15%
same,"viability, T/C",[17],6.48%
same,"viability, T/C",[18],7.03%
same,"viability, T/C",[19],70.9%
same,"viability, T/C",[20],7.27%
same,"viability, T/C",[21],7.19%
same,"viability, T/C",[22],7.47%
same,"viability, T/C",[23],6.86%
same,"viability, T/C",[24],6.1%
same,"viability, T/C",[25],73.6%
same,"viability, T/C",[26],7.11%
same,"viability, T/C",[27],6.48%
same,"viability, T/C",[28],5.97%
same,"viability, T/C",[29],6.64%
same,"viability, T/C",[30],8.77%
same,"viability, T/C",[31],78%
same,"viability, T/C",[32],9.42%
same,"viability, T/C",[33],7.4%
same,"viability, T/C",[34],7.48%
same,"viability, T/C",[35],6.25%
same,"viability, T/C",[36],7%
